Measured values taken from patent US20070167405A1, “Galectins -1 and -4 in tumor development” (priority 2001, published 2007).
Values joined by “and” are separate entries in the source; they are usually repeats but may differ in a detail not shown here. Equal entries are not always repeated.

Key:
[1] = target: recombinant human galectin-1 (Homo sapiens, UniProt P09382); experiment: SPR (BIAcore) equilibrium binding to immobilized galectin-1; set-up: key to Galectin-1 binding, KD: NB: non-binder; settings: for Kd / Galectin-1 binding, KD: SPR steady state affinity fit, Table I; for Kd: read-out: Galectin-1 binding, KD; for binding to galectin-1 (in words): SPR assay
Method: (§1) Galectin binding affinity measurements were performed in a surface plasmon resonance (SPR) assay using […] instrument (BIAcore, Inc, Uppsala, Sweden). PBS with 5 mM β-mercaptoethanol was used as running buffer for all experiments. Purified recombinant human galectin-1 and galectin-4 were immobilized at different surface densities on CM5 carboxymethyldextran chip (BIAcore) in the presence of 150 mM lactose, using standard amine coupling chemistry. Galectin immobilization was performed at 5 μl/min flow rate. To ensure the maximum possible immobilization of recombinant proteins, carboxylmethyldextran surface was activated with a 15 min pulse of a mixture of 0.05 M N-hydroxysuccinimide (NHS) with 0.2 M N-ethyl-N′-(dimethylaminopropyl) carbodiimide (EDC). Recombinant galectins, diluted to 30 μg/ml in 10 mM Na Acetate buffer (pH 4.8 for galectin-1 and pH 5.5 for galectin-4) were coupled to the surface during a 15-minute injection. Following galectin injection, remaining activated groups on the surface of the chip were deactivated with a 7 min pulse of 1 M ethanolamine hydrochloride, pH 8.5. Blank, unmodified CM5 surface was used as a negative control for the corrections for refractive index changes due to the presence of lactulosamines.
(§2) Binding of lactulosamines was performed at 80 μl/min flow rate, with injection times of 15 sec. […] Instead, the equilibrium binding levels were examined and determined the equilibrium binding constant using steady state affinity fitting model (BIAevaluation software version 3.1).

[2] = target: T1, recombinant human galectin-4 (Homo sapiens, UniProt P56470); experiment: SPR (BIAcore) equilibrium binding to immobilized galectin-4; set-up: key to Galectin-4 binding, KD: NB: non-binder; settings: for Kd / Galectin-4 binding, KD: SPR steady state affinity fit, Table I; for Kd: read-out: Galectin-4 binding, KD; for binding to galectin-4 (in words): SPR assay
T1 construct: cDNA encoding full-length human galectin-4 was amplified from an EST clone; made in house; host or cells: E. coli BL21 (DE3)pLysS
T1 sequence (P56470 1-323): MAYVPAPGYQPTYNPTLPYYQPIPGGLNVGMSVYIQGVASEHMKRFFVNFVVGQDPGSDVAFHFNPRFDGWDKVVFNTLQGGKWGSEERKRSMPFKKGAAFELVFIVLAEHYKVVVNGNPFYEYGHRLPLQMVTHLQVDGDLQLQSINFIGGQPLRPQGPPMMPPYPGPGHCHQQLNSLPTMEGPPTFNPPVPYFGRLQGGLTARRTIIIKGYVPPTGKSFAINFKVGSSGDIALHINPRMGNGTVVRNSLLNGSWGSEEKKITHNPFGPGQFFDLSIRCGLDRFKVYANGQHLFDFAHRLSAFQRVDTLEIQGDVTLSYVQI
Method: as §1, §2

[3] = target: galectin-1 binding to laminin (Homo sapiens, UniProt P09382); experiment: ELISA, inhibition of galectin-1 binding to immobilized laminin; settings: for inhibition of binding of galectin-1 to laminin: at 156 μM, galectin-1 2.5 μg/ml (0.17 μM)
Method: (§3) Human 90K/MAC-2BP (thereafter called 90K) was purified from transfected EBNA-293 cells (lurisci, I., et al., Clin. Cancer Res. (2000) 6:1389-1393). Laminin was obtained from Boehringer Mannheim GmbH (Germany). The ELISA for galectin binding has been previously described (Tinari, N., et al., Int. J. Cancer (2001) 91:167-172). Briefly, Nunc Maxisorb microtiter wells were coated with 0.5 μg/well of 90K or laminin. Recombinant galectin-1 (2.5 μg/ml or 0.17 μM) was diluted in PBS with 0.1% Tween-20 and added to wells coated with glycoproteins, and galectin-1 binding was detected with anti-galectin-1 rabbit antiserum. In binding-inhibition experiments, recombinant galectin-1 was diluted in PBS-0.1% Tween-20 containing indicated concentration of lactulosamines or lactose.

[4] = target: galectin-1 binding to 90K/MAC-2BP (Homo sapiens, UniProt P09382); experiment: ELISA, inhibition of galectin-1 binding to immobilized 90K; settings: for inhibition of binding of galectin-1 to 90K: at 156 μM, galectin-1 2.5 μg/ml (0.17 μM)
Method: as §3

[5] = Toxicity statement on galectin inhibitors
[6] = test system: CD8+ CTL clone; experiment: CD8+ CTL clone survival after TF peptide stimulation, with galectin-1 and inhibitors; type: cell-based
Source text: The ability of L2hmda to restore this activity is especially significant since TDG, a known galectin inhibitor, is toxic. However, L2hmda is not toxic. […] The CD8+ CTL clone was stimulated with TF peptide for 4 days and cell survival (% of starting number) measured by enumerating viability by trypan blue exclusion.

[7] = test system: CD8+ CTL clone; experiment: Cytokine production by CD8+ CTL clone after TF peptide stimulation, with galectin-1 and inhibitor; type: cell-based; settings: supernatants 48 hr after stimulation; galectin-1 0-7 uM
Method: Treatment in vitro of CD4+ and CD8+T cells with recombinant soluble galectin-1 inhibits their survival and ability to secrete cytokine, such as interferon-γ and IL-2. […] In FIG. 10A, cells are stimulated by TF peptide and the levels of interferon-γ produced measured in nanogram/milliliter (ng/ml). As shown, galectin-1 inhibits interferon-γ secretion in a dose-dependent manner. […] Similar data were seen when another cytokine, IL-2, was measured (not shown).

Sequence of recombinant human galectin-1 (P09382 whole entry): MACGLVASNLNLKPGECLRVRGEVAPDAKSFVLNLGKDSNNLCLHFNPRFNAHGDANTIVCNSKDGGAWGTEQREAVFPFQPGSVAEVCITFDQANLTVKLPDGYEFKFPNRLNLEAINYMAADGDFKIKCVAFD
Sequence of galectin-1 binding to laminin (P09382 2-135 limits assumed): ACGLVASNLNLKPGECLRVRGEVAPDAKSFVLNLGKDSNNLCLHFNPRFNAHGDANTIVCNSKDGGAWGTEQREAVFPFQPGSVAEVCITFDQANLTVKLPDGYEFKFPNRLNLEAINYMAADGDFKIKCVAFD
Sequence of galectin-1 binding to 90K/MAC-2BP (P09382 2-135 limits assumed): as above

## CC(NCC(=O)C(O)C(OC1OC(CO)C(O)C(O)C1O)C(O)CO)C(=O)O [Lactulose-D-alanine]
[1]
  Kd: 133 µM
[2]
  Kd: 1010 µM

## CC(C)CC(NCC(=O)C(O)C(OC1OC(CO)C(O)C(O)C1O)C(O)CO)C(=O)O [Lactulose-D-leucine]
[1]
  Kd: 128 µM and 223 µM
[2]
  Kd: 770 µM and 880 µM and 1090 µM

## O=C(O)CCCNCC(=O)C(O)C(OC1OC(CO)C(O)C(O)C1O)C(O)CO [Lactulose-L-GABA]
[1]
  Kd: 106 µM
[2]
  Kd: 1040 µM

## CC(NCC(=O)C(O)C(OC1OC(CO)C(O)C(O)C1O)C(O)CO)C(=O)O [Lactulose-L-alanine]
[1]
  Kd: 150 µM
[2]
  Kd: 1490 µM and 1720 µM

## O=C(O)C(Cc1c[nH]cn1)NCC(=O)C(O)C(OC1OC(CO)C(O)C(O)C1O)C(O)CO [Lactulose-L-histidine]
[1]
  Kd: 191 µM
[2]
  Kd: 2280 µM

## CCC(C)C(NCC(=O)C(O)C(OC1OC(CO)C(O)C(O)C1O)C(O)CO)C(=O)O [Lactulose-L-isoleucine]
[1]
  Kd: 129 µM
[2]
  Kd: 550 µM

## CSCCC(NCC(=O)C(O)C(OC1OC(CO)C(O)C(O)C1O)C(O)CO)C(=O)O [Lactulose-L-methionine]
[1]
  Kd: 127 µM
[2]
  Kd: 1270 µM

## O=C(O)C(Cc1ccccc1)NCC(=O)C(O)C(OC1OC(CO)C(O)C(O)C1O)C(O)CO [Lactulose-L-phenylalanine]
[1]
  Kd: 200 µM
[2]
  Kd: 1090 µM and 1260 µM

## O=C(CN1CCCC1C(=O)O)C(O)C(OC1OC(CO)C(O)C(O)C1O)C(O)CO [Lactulose-L-proline]
[1]
  Kd: 70 µM
[3]
  inhibition of binding of galectin-1 to laminin: ~40%
[4]
  inhibition of binding of galectin-1 to 90K: about 50%
[2]
  Kd: 530 µM

## CC(O)C(NCC(=O)C(O)C(OC1OC(CO)C(O)C(O)C1O)C(O)CO)C(=O)O [Lactulose-L-threonine]
[1]
  Kd: 376 µM
[2]
  Kd: 3830 µM

## CC(C)C(NCC(=O)C(O)C(OC1OC(CO)C(O)C(O)C1O)C(O)CO)C(=O)O [Lactulose-L-valine]
[1]
  Kd: 158 µM
[2]
  Kd: 719 µM and 730 µM

## O=C(O)CNCC(=O)C(O)C(OC1OC(CO)C(O)C(O)C1O)C(O)CO (stereo not shown) [Lactulose-glycine]
[1]
  Kd: 102 µM
[3]
  inhibition of binding of galectin-1 to laminin: ~10%
[4]
  inhibition of binding of galectin-1 to 90K: about 20%
[2]
  Kd: 790 µM

## OC[C@H]1O[C@H](O[C@H]2[C@H](O)[C@@H](O)[C@H](O)O[C@@H]2CO)[C@H](O)[C@@H](O)[C@@H]1O [Maltose, reference compound]
[1]
  binding to galectin-1 (in words): unable to bind
  Galectin-1 binding, KD: NB
[2]
  binding to galectin-4 (in words): unable to bind
  Galectin-4 binding, KD: NB

## OC[C@H]1O[C@@](CO)(O[C@H]2O[C@H](CO)[C@@H](O)[C@H](O)[C@H]2O)[C@@H](O)[C@@H]1O [Sucrose, reference compound]
[1]
  binding to galectin-1 (in words): unable to bind
  Galectin-1 binding, KD: NB
[2]
  binding to galectin-4 (in words): unable to bind
  Galectin-4 binding, KD: NB

## OC[C@H]1O[C@@H](S[C@@H]2O[C@H](CO)[C@H](O)[C@H](O)[C@H]2O)[C@H](O)[C@@H](O)[C@H]1O [TDG, thiodigalactolate, reference compound]
[5]
  toxicity: toxic
[6]; 4 days, trypan blue exclusion, FIG. 10B
  prevention of cell death induced by galectin-1: prevented the majority of cell death
[6]; in presence of galectin-1, FIG. 10B
  restoring the ability of CTL's to proliferate: able to restore

## OC[C@H]1O[C@@H](O[C@H]2[C@H](O)[C@@H](O)[C@H](O)O[C@@H]2CO)[C@H](O)[C@@H](O)[C@H]1O [β-lactose, reference compound]
[1]
  binding to galectin-1 (in words): able to bind
[3]; ELISA, FIG. 9B
  inhibition of galectin-1 binding to laminin (in words): inhibited
[3]
  inhibition of binding of galectin-1 to laminin: ~10%
[4]; ELISA, FIG. 9A
  inhibition of galectin-1 binding to 90K (in words): inhibited
[4]
  inhibition of binding of galectin-1 to 90K: about 20%
[2]
  binding to galectin-4 (in words): able to bind

## fructose-D-leucine
[1]
  binding to galectin-1 (in words): did not
  Galectin-1 binding, KD: NB
[1]; listed as fructose coupled to leucine
  binding to galectin-1 (in words): unable to bind
[2]
  binding to galectin-4 (in words): unable to bind
  Galectin-4 binding, KD: NB

## galectin-1: recombinant soluble galectin-1, immunosuppressive lectin added to T cells
[7]
  IFN-γ production (ELISA): suppressed in a dose dependent fashion
[6]; over the 4 day period, trypan blue exclusion
  death of T cells: 90%
